Test results taken from patent publication US20050187288A1, “Beta-lapachone and methods of treating cancer” (priority 2004, published 2005).
Read-outs that look alike come from different tables or passages of the source.

Experiments:
[1] = Binding to human plasma proteins by equilibrium dialysis; format: in vitro ADME; details: human, pooled human plasma; 2-25 μM, 37° C.; read-out: protein binding (converted)
Description: (§1) The plasma aliquots were incubated at 37° C. for 1 h, and then were dialyzed against PBS buffer at 37° C. for 4 h using Dianorm Equilibrium Dialysers.

[2] = test system: human plasma proteins; assay: as above; format: in vitro ADME; details: 2-25 μM, 37° C.
Description: as §1

[3] = test system: PaCa-2; assay: cells
Description: (§2) Control plates received the same volume of DMSO alone.
(§3) Control plates receive the same volume of DMSO alone. […] Each “Replicate Result” represents the result of a separate experiment.

[4] = test system: BxPC-3; assay: cells; details: Homo sapiens
Description: as §2, §3

[5] = Study 2A: repetitive weekly intravenous toxicity study in dogs; details: for decreased hemoglobin: Day 23
Description: (§4) On Day 23 of the study, 4 animals/sex/group were euthanized (barbiturate overdose) followed by exsanguination and subjected to necropsy as described below.

[6] = Stability on incubation in human plasma; format: in vitro ADME; details: incubated in human plasma at 37° C. for 16 hrs; previous studies
[7] = test system: normal breast epithelial cells (MCF-10A); assay: Colony formation assay, cancer vs normal breast cells; format: cell-based, human; details: 4 h treatment
Description: After 10-20 days, cells were fixed and stained with modified Wright-Giemsa stain.

[8] = Study 1A: repetitive weekly intravenous toxicity study in rats
[9] = test system: MCF-7; assay: cells; details: Homo sapiens, MCF7, read-out: LC50 (Replicate Results), MCF-7, 4 hour exposure, colonies after 14-21 days
Description: (§5) Control plates received the same volume of DMSO alone. After a 4 hour exposure the drug was carefully removed, and drug-free medium could be added. […] Colonies of greater than 50 cells were scored as survivors. Cells were maintained at 37° C. in 5% CO2 in complete humidity.

[10] = Study 5B: four week intravenous toxicity study in rats; details: for creatine kinase elevation: Day 1
Description: Blood samples were taken for hematology and clinical chemistry (Days 1, 15 and 24) and coagulation (Day 24 only) and clinical chemistry evaluation.

[11] = test system: CAOV-3; assay: cells; details: Homo sapiens, Caov-3, read-out: LC50 (Replicate Results), CAOV-3, 4 hour exposure, colonies after 14-21 days
Description: as §5

[12] = Study 6B: two week intravenous repetitive dose toxicity study in rats; details: 45 mg/kg, one animal, Day 15
[13] = Reversibility of binding to human plasma proteins; format: in vitro ADME; details: pooled human plasma, dialyzed three times against fresh plasma, 37° C., read-out: fraction in plasma reversibly bound to plasma proteins
Description: The spiked plasma was incubated at 37° C. for 1 h, and then was dialyzed three times against fresh plasma aliquots at 37° C.

[14] = test system: HT-29 human colon cancer cells; assay: Human colon cancer xenograft model; format: in vivo, mice
Description: The animals were randomized into three groups. […] Mean tumor volume was then analyzed.

[15] = Study 4B: cardiovascular, pulmonary study in anesthetized dogs; format: in vivo
Description: In Study No. 4B, adult female Beagle dogs (one male in control group) were randomized into three study groups (3 animals/group) as shown in Table 17.
For measurement of cardiovascular function, a lead II ECG was obtained with subdermal needle electrodes and an ECG signal conditioner. Heart rate (HR) was measured with a pulse rate tachometer. The right femoral artery was cannulated with a catheter connected to a pressure transducer and pressure processor for recording mean, systolic and diastolic arterial blood pressure (BP). The left femoral artery was exposed by a flank incision and a probe (2.5 mm i.d.) connected to an electromagnetic flowmeter was placed around the artery for measurement of blood flow (BF). […] For measurement of pulmonary function, a 5.0 mm endotracheal tube connected to a pneumotachograph recorded integrated flow to yield a continuous recording of respiratory rate (RR). Intrapleural pressure was obtained from an esophageal balloon placed in the lower third of the esophagus. Transpulmonary pressure, the difference between thoracic (i.e. the external end of the endotracheal tube) and pleural pressure, was measured with a differential pressure transducer. Measurements of respiratory flow and transpulmonary pressure were used to compute total lung resistance (RL) and dynamic compliance (CDYN).
All parameters were measured and recorded immediately before (0 minute) and 5, 10, 30, 60, 90 and 120 minutes after start of the infusion. The mean±SEM value and the percentage relative to pretreatment values at each observation time point after dosing were calculated, and Dunnett's test was applied for comparison between vehicle control group and test substance treated group at the relative observation time interval. Differences were considered significant at p<0.05 level.

[16] = test system: CAOV-3; details: human, 4 h
Description: as §5

[17] = test system: PaCa-2 pancreatic cancer cells; assay: cells; details: Homo sapiens
[18] = test system: SK-OV-3; details: human, 4 h
Description: as §5

[19] = in vivo; details: Sprague-Dawley, rat, 10 mg/kg, AUC* (estimated from toxicology experiments)
[20] = dog, in vivo
Description: as §4

[21] = test system: human PBMC; assay: MTT cytotoxicity on PBMC; format: cell-based; details: 0.5, 2, 4, and 8 μM for 24 h
Description: Proliferating PBMC were generated by 72 h incubation with phytohemagglutinin (PHA) at 2 μg/mL.

[22] = 40 mg/kg, by the end of the infusion

What does the source list for CC1(C)CCC2=C(O1)c1ccccc1C(=O)C2=O [β-lapachone, 3,4-dihydro-2,2-dimethyl-2H-naphtho [1,2-b]pyran-5,6-dione]?
fraction unbound at 4 h [1]: 0.07; amount of free compound in human plasma [2]: approximately 7%; CC50 ([3]; Homo sapiens, PaCa-2, read-out: LC50 (Replicate Results)): 1680 nM; CC50 ([3]; Homo sapiens, PaCa-2, read-out: LC50 (Replicate Results), PaCa-2, 4 hour exposure, colonies after 14-21 days): 1680 nM; CC50 ([3]; human, 4 h): 1520 nM; CC50 ([4]; BXPC-3, read-out: LC50 (Replicate Results)): 1890 nM; CC50 ([4]; BXPC-3, read-out: LC50 (Replicate Results), BxPC-3, 4 hour exposure, colonies after 14-21 days): 1890 nM; findings ([5]; 15 mg/kg and 35 mg/kg): signs of reversible extravascular hemolysis; bilirubin ([5]; Days 2 and 23, resolved by Day 37): dose-dependent slight increase; ophthalmologic findings ([5]; dog, in vivo): no drug-related ophthalmologic findings; splenic enlargement (animals) ([5]; high-dose (35 mg/kg)): 3/8; decreased hemoglobin ([5]; high-dose (35 mg/kg)): ~5 g/dL; mean decrease in body weight ([5]; high-dose (35 mg/kg), females): −4%; mean decrease in body weight ([5]; high-dose (35 mg/kg), males): −7%; splenic enlargement (animals) ([5]; mid-dose (15 mg/kg)): 5/8; decreased hemoglobin ([5]; mid-dose (15 mg/kg)): ~3 g/dL; stability in human plasma [6]: stable to degradation; number of colonies [7]: no reduction in the number of colonies; NOEL ([8]; Study 1A): 10 mg/kg/dose; bilirubin (slight increase) ([8]; high dose animals, Days 2 and 23, ULN 0.27 mg/dl): 0.33 mg/dL; decrease in hemoglobin ([8]; mid- and high-dose animals, normalized by Day 37): < 2 g/dL; CC50 [9]: 1450 nM; mortality and clinical signs ([10]; 30 mg/kg dose group): No mortality or clinical signs of toxicity; creatine kinase elevation ([10]; 30 mg/kg): 2 fold upper limit of normal; creatine kinase elevation ([10]; 45 mg/kg): 4 fold upper limit of normal; reticulocyte count ([10]; high dose group (45 mg/kg), Day 15, controls 2.1%): 4.1%; CC50 [11]: 1560 nM; total bilirubin ([12]; ULN 0.27): 0.46 mg/dL; blood urea nitrogen ([12]; ULN 19): 40 mg/dL; creatinine phosphokinase ([12]; ULN 513): 553 IU/L; fraction unbound at 10 μM [13]: ≤ 0.35; reduction of mean tumor volume ([14]; 60 mg/kg IP every three days, 10 treatments): approximately 75%; toxicity ([14]; mouse, in vivo): No sign of significant toxicity; reduction of tidal volume ([15]; 20 mg/kg, at 60 minutes): 16%; dynamic compliance ([15]; 40 mg/kg): approximately 52 % of normal; increase of pulmonary resistance ([15]; 40 mg/kg): approximately 50%; decrease in tidal volume [15, 22]: 41%; respiratory rate [15, 22]: four-fold increase; effects on cardiovascular function (BP, blood flow, heart rate, ECG incl. QTc) ([15]; up to and including 40 mg/kg over 1 hour): no significant effects on cardiovascular function; CC50 [16]: 1440 nM; CC50 ([17]; PaCa-2, read-out: LC50, PaCa-2 Clone A surviving >LC99): 2590 nM; CC50 ([17]; PaCa-2, read-out: LC50, PaCa-2 Clone B surviving >LC99): 2720 nM; CC50 ([17]; PaCa-2, read-out: LC50, PaCa-2 WT): 2690 nM; CC50 [18]: 1290 nM; AUC [19]: 2640 ng·h/mL; plasma levels (preliminary toxicokinetic results) [20]: significantly above the values predicted; tolerability ([20]; iv, 5 mg/kg): well-tolerated; cytotoxicity to fresh or proliferating PBMC growth [21]: No cytotoxicity
